Source: patent US9290487B2, “Pharmaceutical composition for treating diabetes” (Ajinomoto Co., Inc., priority 2011, dated 2016)
pEC50: −log10 of the molar value. Where a name gives a salt, the structure may show the parent alone. Read-outs that look alike come from different tables or passages of the source.

How the values were obtained:
[1] = target: human GYS1 (glycogen synthase) (Homo sapiens (Human), UniProt P13807); experiment: Measurement of glycogen synthase activity (coupled pyruvate kinase/lactate dehydrogenase assay, absorbance at 340 nm); type: biochemical; conditions: concentration inducing relative activity of 50% (100% = Ex. 1 of WO/2011/058154 at 10 μM)
Sequence of human GYS1 (glycogen synthase) (P13807 whole entry): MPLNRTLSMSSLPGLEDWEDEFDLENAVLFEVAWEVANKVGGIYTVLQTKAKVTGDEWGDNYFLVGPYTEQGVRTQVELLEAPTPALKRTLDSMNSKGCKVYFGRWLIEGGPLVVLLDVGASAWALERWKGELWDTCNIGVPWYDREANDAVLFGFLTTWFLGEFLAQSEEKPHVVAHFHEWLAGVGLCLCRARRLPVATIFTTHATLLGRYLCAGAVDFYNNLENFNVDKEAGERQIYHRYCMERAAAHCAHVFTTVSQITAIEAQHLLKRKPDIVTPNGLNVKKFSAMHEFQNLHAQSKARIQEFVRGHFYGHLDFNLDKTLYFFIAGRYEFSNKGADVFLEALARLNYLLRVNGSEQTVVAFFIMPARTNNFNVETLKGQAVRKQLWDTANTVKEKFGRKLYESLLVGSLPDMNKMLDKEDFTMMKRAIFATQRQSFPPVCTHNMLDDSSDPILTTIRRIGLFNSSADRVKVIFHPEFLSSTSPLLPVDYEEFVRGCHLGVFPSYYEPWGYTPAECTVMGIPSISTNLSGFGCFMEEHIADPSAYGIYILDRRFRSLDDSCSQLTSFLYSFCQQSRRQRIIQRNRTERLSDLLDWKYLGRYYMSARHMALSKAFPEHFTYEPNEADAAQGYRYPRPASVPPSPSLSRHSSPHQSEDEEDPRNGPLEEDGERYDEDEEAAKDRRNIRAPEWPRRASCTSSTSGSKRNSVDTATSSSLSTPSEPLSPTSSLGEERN
Description: A human GYS1 expression plasmid (pCDNA3.1(+)-hGYS1) was constructed by the following method. Using a human skeletal muscle cDNA of Human MTC Panel I (Takara Bio Inc., 636742) as a template, a human GYS1 gene was amplified by a PCR method using cloning primers (Forward Primer: ATGCCTTTAAACCGCAC (SEQ ID NO: 1), Reverse Primer: TTAGTTACGCTCCTCGC (SEQ ID NO: 2)). Using the amplified human GYS1 sequence as a template, a restriction enzyme sequence was added by a PCR method using sub-cloning primers (Forward Primer: […] (SEQ ID NO: 3), Reverse Primer: […] (SEQ ID NO: 4)). Then, the human GYS1 gene was introduced between a Xho I site and a Xba I site of pCDNA3.1(+) (Invitrogen Corporation, V790-20).
Glycogen synthase was prepared by the following method according to the published article (THE JOURNAL OF BIOLOGICAL CHEMISTRY Vol. 269, No. 41, 25534-25542, 1994). Human kidney-derived HEK293T cells were seeded in a dish (Thermo Fisher Scientific Inc., 168381) using a 10% FBS-containing DMEM (Nacalai Tesque, Inc., 0845874) medium, and cultured overnight. Then, using Lipofectamine LTX (Invitrogen Corporation, 15338-100), the human GYS1 expression vector was transfected according to the attached manual. After culturing under conditions of 37° C. and 5% CO2 for 2 days, the resultant was dissolved in a lysis buffer (50 mM Tris-HCl (pH 8.0), 10 mM EDTA, 2 mM EGTA, 100 mM NaF, 1 mM PMSF, 1 mM DTT, 1× Complete (Roche Diagnostics K. K., 1873580)), homogenized, and then centrifuged at 16000×g at 4° C. for 15 minutes. To the precipitated fraction, a lysis buffer was added. Re-dissolved fractions were used as glycogen synthase for evaluation.
The glycogen synthase activity was measured by the following method. To a polystyrene 96-well plate, a solution containing 30 mM glycylglycine (pH 7.3), 40 mM KCl, 20 mM MgCl2, 9.2% DMSO containing one of the test compounds at various concentrations, and 10 mM glucose-6-phosphate (Sigma-Aldrich Corporation, G7879) was added by 12 μL/well.
Next, a substrate solution containing 30 mM glycylglycine (pH 7.3), 4.3 mg/mL of glycogen (Sigma-Aldrich Corporation, G8876), 21.6 mM UDP-glucose (Sigma-Aldrich Corporation, U4625), 21.6 mM phosphoenolpyruvic acid (Sigma-Aldrich Corporation, P0564), and 4.05 mM NADH (Sigma-Aldrich Corporation, N8129) was added by 18 μL/well.
Further, an enzyme solution containing 50 mM Tris-HCl (pH 8.0), 27 mM DTT (Nacalai Tesque, Inc., 14128-04), 0.2 mg/mL of bovine serum albumin, 0.17 mg/mL of the glycogen synthase, 1.5 μL of a pyruvate kinase/lactate dehydrogenase solution (Sigma-Aldrich Corporation, P0294) was added by 18 μL/well to prepare a reaction solution. After the reaction solution was incubated (at 30° C. for 25 minutes for Examples 1 to 10, at 37° C. for 20 minutes for Examples 11 to 75), the absorbance at 340 nm was measured using Benchmark Plus (Bio-Rad Laboratories, Inc.).
The activities of the test compounds were calculated by the following method. The change in the absorbance (ΔA340) was calculated by subtracting the absorbance at 340 nm of the reaction solution containing the compound and DMSO from the absorbance at 340 nm of a reaction solution not containing the compound but containing only DMSO. The ΔA340 of the reaction solution containing the compound of Example 1 in WO/2011/058154 at the final concentration of 10 μM was taken as 100% to calculate the relative activity (%) of the test compounds at various concentrations. EC50 representing the concentration of the compound which induces an increase in the relative activity to 50% was calculated using XLfit (idbs).

[2] = target: PPAR-α (Homo sapiens (Human), UniProt Q07869); experiment: Measurement of PPAR-α activity (GAL4 luciferase reporter assay in CV-1 cells); type: cell-based; conditions: 100(A/B), B = compound in WO/2011/058154 at 100 μM, read-out: PPARα relative fold induction (%)
Sequence of PPAR-α (Q07869 167-468): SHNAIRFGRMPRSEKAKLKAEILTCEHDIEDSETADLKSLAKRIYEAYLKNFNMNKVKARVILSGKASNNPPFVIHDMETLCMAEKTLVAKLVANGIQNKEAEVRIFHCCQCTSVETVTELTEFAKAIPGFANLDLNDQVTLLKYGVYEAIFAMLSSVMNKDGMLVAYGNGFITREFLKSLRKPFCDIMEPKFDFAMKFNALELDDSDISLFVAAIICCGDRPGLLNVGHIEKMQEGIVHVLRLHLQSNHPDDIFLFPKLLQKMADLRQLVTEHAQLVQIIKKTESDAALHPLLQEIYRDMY
Description: The PPAR-α activity was measured according to the published article (THE JOURNAL OF BIOLOGICAL CHEMISTRY Vol. 270, No. 22, 12953-12956, 1995).
Plasmids used for the PPAR-α activity measurement were constructed as follows. A luciferase expression plasmid (UASx5-TK-Luc) used was obtained by introducing a sequence, in which five yeast GAL4-binding sequences are linked in tandem, upstream of a thymidine kinase promoter of pTAL-Luc (Takara Bio Inc., 6252-1). A PPAR-α receptor expression plasmid (hGR-GAL4-hPPARα) used was obtained by introducing a human GR N-terminal region (1-76 aa), a yeast GAL4 DNA-binding region (1-147 aa), and a PPARα ligand-binding region (167-468 aa) between a Not I site and a Sal I site of pExchange-1 Core Vector (Invitrogen Corporation, 211176).
A reporter assay was conducted by the following method using Cercopithecus aethiops kidney-derived CV-1 cells. The CV-1 cells were seeded in a 96-well plate (Thermo Fisher Scientific Inc., 4938) at 2×10^4 cells/well using a 10% FBS-containing DMEM (Nacalai Tesque, Inc., 0845874) medium. After culturing under conditions of 37° C. and 5% CO2 for 2 hours, the plasmids were transfected. Lipofectamine LTX (Invitrogen Corporation, 15338-100) was used for the transfection according to the attached manual. The plasmid solution was prepared by adding a mixture solution of the luciferase expression plasmid and the PPAR-α receptor expression plasmid to OPTI-MEM I (Invitrogen Corporation, 11058-021). After the transfection was conducted, the test compound was added, and cultured at 37° C. in the presence of 5% CO2 for 18 to 20 hours. After the culturing was completed, the luciferase activity was measured with Luminescensor JNR (ATTO) using Bright-Glo (Promega Corporation, E2620).
The fold induction of PPAR-α by the test compounds was calculated by the following method. For the compounds of Examples 1, 4, 5, 7, and 9, PPAR-α relative fold induction (%) was defined as 100 (A/B), where A represents the maximum value of PPAR-α activities with the test compound at 0.3 μM, 1 μM, 3 μM, 10 μM, 30 μM, and 100 μM, and B represents the PPAR-α activity with the compound in WO/2011/058154 at 100 μM. For the compounds of Examples 11, 15, 19, 22, 26, and 32, PPAR-α relative fold induction (%) was defined as 100 (A/B), where A represents the maximum value of PPAR-α activities with the test compound at 3 μM, 10 μM, 30 μM, and 100 μM, and B represents the PPAR-α activity with the compound in WO/2011/058154 at 100 μM.

[3] = incubation at 30° C. for 25 minutes (Examples 1 to 10)
[4] = A = maximum activity at 0.3, 1, 3, 10, 30 and 100 μM
[5] = incubation at 37° C. for 20 minutes (Examples 11 to 75)
[6] = A = maximum activity at 3, 10, 30 and 100 μM
[7] = test concentrations not stated for these examples

pEC50 [1, 3] | Emax [2, 4] | pEC50 [1, 5] | Emax [2, 6] | Emax [2, 7] | Structure (SMILES)
6.59 | 10% |  |  |  | O=C(O)[C@@H]1CCCN1C(=O)c1cccc(COc2ccc(-c3cc(F)cc4c3OCC4)cc2)c1 [compound of Ex. 1, 1-(3-{[4-(5-fluoro-2,3-dihydro-1-benzofuran-7-yl)phenoxy]methyl}benzoyl)-L-proline]
6.60 | 17% |  |  |  | O=C(O)[C@@H]1CCCN1C(=O)c1cccc(COc2ccc(-c3cccc4c3OCO4)cc2)c1 [compound of Ex. 4, 1-(3-{[4-(1,3-benzodioxol-4-yl)phenoxy]methyl}benzoyl)-L-proline]
6.30 | 10% |  |  |  | O=C(O)[C@@H]1CCCN1C(=O)c1cccc(COc2ccc(-c3cccc4c3OCC4)cc2)c1 [compound of Ex. 5]
6.59 | 17% |  |  |  | O=C(O)[C@@H]1CCCN1C(=O)c1cccc(COc2ccc(-c3cccc4ccoc34)cc2)c1 [compound of Ex. 7]
6.49 | 11% |  |  |  | O=C(O)[C@@H]1CCCN1C(=O)c1cccc(COc2ccc(-c3cccc4c3OCC=C4)cc2)c1 [compound of Ex. 9]
 |  | 7.66 | 20% |  | O=C(O)[C@@H]1CCCN1C(=O)c1cccc(COc2ccc(-c3cc(F)c(F)c4ccoc34)cc2)c1 [compound of Ex. 15, 1-(3-{[4-(4,5-difluoro-1-benzofuran-7-yl)phenoxy]methyl}benzoyl)-L-proline]
 |  | 7.51 | 12% |  | O=C(O)[C@@H]1CCCN1C(=O)c1cccc(COc2ccc(-c3cc(F)c(F)c4c3OCC4)cc2)c1 [compound of Ex. 19, 1-(3-{[4-(4,5-difluoro-2,3-dihydro-1-benzofuran-7-yl)phenoxy]methyl}benzoyl)-L-proline]
 |  | 6.74 | 15% |  | CC1(C)Cc2cc(F)cc(-c3ccc(OCc4cccc(C(=O)N5CCC[C@H]5C(=O)O)c4)cc3)c2O1 [compound of Ex. 22, 1-(3-{[4-(5-fluoro-2,2-dimethyl-2,3-dihydro-1-benzofuran-7-yl)phenoxy]methyl}benzoyl)-L-proline]
 |  | 6.80 | 13% |  | O=C(O)[C@@H]1CCCN1C(=O)c1cccc(COc2ccc(-c3cccc4[nH]ccc34)cc2)c1 [compound of Ex. 26, 1-(3-{[4-(1H-indol-4-yl)phenoxy]methyl}benzoyl)-L-proline]
 |  | 6.12 | 3% |  | O=C1COc2c(cccc2-c2ccc(OCc3cccc(C(=O)N4CCC[C@H]4C(=O)O)c3)cc2)N1 [compound of Ex. 32, 1-(3-{[4-(3-oxo-3,4-dihydro-2H-1,4-benzoxazin-8-yl)phenoxy]methyl}benzoyl)-L-proline]
 |  | 6.96 |  | 10% | O=C(O)[C@@H]1CCCN1C(=O)c1cccc(COc2ccc(-c3cc(F)c(F)cc3S)cc2)c1 [compound of Ex. 40, 1-(3-{[(4′,5′-difluoro-2′mercaptobiphenyl-4-yl)oxy]methyl}benzoyl)-L-proline]
 |  | 7.27 |  | 13% | N#CCNc1cc(-c2ccc(OCc3cccc(C(=O)N4CCC[C@H]4C(=O)O)c3)cc2)cc(F)c1F [compound of Ex. 42, 1-{3-[({3′-[(cyanomethyl)amino]-4′,5′-difluorobiphenyl-4-yl}oxy)methyl]benzoyl}-L-proline trifluoroacetic acid salt]
 |  | 7.15 |  | 11% | O=Cc1cc(F)c(F)cc1-c1ccc(OCc2cccc(C(=O)N3CCC[C@H]3C(=O)O)c2)cc1 [compound of Ex. 43, 1-(3-{[(4′,5′-difluoro-2′-formylbiphenyl-4-yl)oxy]methyl}benzoyl)-L-proline]
 |  | 6.09 |  | 10% | COC(=O)c1cc(F)c(F)cc1-c1ccc(OCc2cccc(C(=O)N3CCC[C@H]3C(=O)O)c2)cc1 [compound of Ex. 44, 1-[3-({[4′,5′-difluoro-2′-(methoxycarbonyl)biphenyl-4-yl]oxy}methyl)benzoyl]-L-proline]
 |  | 6.66 |  | 17% | CC(=O)COc1cc(-c2ccc(OCc3cccc(C(=O)N4CCC[C@H]4C(=O)O)c3)cc2)cc(F)c1F [compound of Ex. 49, 1-[3-({[3′,4′-difluoro-5′-(2-oxopropoxy)biphenyl-4-yl]oxy}methyl)benzoyl]-L-proline]
 |  | 6.39 |  | 15% | CC(O)COc1cc(-c2ccc(OCc3cccc(C(=O)N4CCC[C@H]4C(=O)O)c3)cc2)cc(F)c1F (stereo partly drawn) [compound of Ex. 50, 1-[3-({[3′,4′-difluoro-5′-(2-hydroxypropoxy)biphenyl-4-yl]oxy}methyl)benzoyl]-L-proline]
 |  | 7.08 |  | 15% | CC(=O)CSc1cc(F)c(F)cc1-c1ccc(OCc2cccc(C(=O)N3CCC[C@H]3C(=O)O)c2)cc1 [compound of Ex. 51, 1-{3-[({4′,5′-difluoro-2′-[(2-oxopropyl)thio]biphenyl-4-yl}oxy)methyl]benzoyl}-L-proline]
